Bounds are passed on as bounds.

For the assay, the target named is LC3B (Homo sapiens, UniProt Q9GZQ8). Description: Fluorescence Polarization (FP) Assay: displacement of FITC-labeled peptide from GST-LC3B. It counts as binding. To be noted: Fluorescence Polarization assay; GST-LC3B 180 nM, FITC-labeled peptide 18 nM, 25° C.; read-out: IC50. As to the method:
The compounds of the present invention for regulating the autophagy-related protein LC3B were tested by Fluorescence Polarization (FP) Assay.
Fluorescence Polarization (FP) Assay Test
In general terms: Fluorescence polarisation rises when a labelled molecule tumbles more slowly, as on binding a larger partner.
On to `COc1ccc2c(c1)C(=O)/C(=C/NCCN1CCN(CCO)CC1)C(=O)N2` [Compound 196, 3-(((2-(4-(2-hydroxyethyl)piperazin-1-yl)ethyl)amino)methylene)-6-methoxyquinoline-2,4(1H,3H)-dione], for which the IC50 (in general, the concentration at which inhibition is half-maximal) lay within 3 to 15 µM. As for `O=C1Nc2c(cccc2C(F)(F)F)C(=O)/C1=C/NCCN1CCN(CCO)CC1` [Compound 197, 3-(((2-(4-(2-hydroxyethyl)piperazin-1-yl)ethyl)amino)methylene)-8-(trifluoromethyl) quinoline-2,4(1H,3H)-dione], the IC50 was < 3 µM.

On to `O=C1NC(=O)/C(=C\NCCN2CCN(CCO)CC2)S1` [Compound 200, 5-(((2-(4-(2-hydroxyethyl)piperazin-1-yl)ethyl)amino)methylene)thiazolidine-2,4-dione], for which the IC50 was 100 to 1000 µM.

`CN(C)C=C1C(=O)C(C)(c2ccccc2)C1=O` (centres unmarked) [Compound 201, 4-((dimethylamino)methylene)-2-methyl-2-phenylcyclobutane-1,3-dione]: the IC50 lay within 100 to 1000 µM. Regarding `CN(C)CCCNC=C1C(=O)CC(c2ccccc2)CC1=O` (centres unmarked) [Compound 202, 2-(((3-(dimethylamino)propyl)amino)methylene)-5-phenylcyclohexane-1,3-dione], the IC50 was in the range of 15 to 100 µM. Regarding `Cc1cccc(CNC=C2C(=O)CC(c3ccccc3)CC2=O)n1` (centres unmarked) [Compound 203, 2-((((6-methylpyridin-2-yl)methyl)amino)methylene)-5-phenylcyclohexane-1,3-dione], the IC50 lay within 3 to 15 µM. The value for `O=C1CC(c2ccccc2)CC(=O)C1=CNCc1ccc(Cl)cn1` (centres unmarked) [Compound 204, 2-((((5-chloropyridin-2-yl)methyl)amino)methylene)-5-phenylcyclohexane-1,3-dione] was 100 to 1000 µM. Turning to `O=C1CC(c2ccccc2)CC(=O)C1=CNCc1cc2ccccc2[nH]1` (centres unmarked) [Compound 205, 2-((((1H-indol-2-yl)methyl)amino)methylene)-5-phenylcyclohexane-1,3-dione], the half-inhibitory concentration (IC50) was in the range of 100 to 1000 µM.

Regarding `CSCCNC=C1C(=O)CC(c2ccccc2)CC1=O` (centres unmarked) [Compound 206, 2-(((2-(methylthio)ethyl)amino)methylene)-5-phenylcyclohexane-1,3-dione], the IC50 is 15 to 100 µM.

As to `C[S+]([O-])CCNC=C1C(=O)CC(c2ccccc2)CC1=O` (centres unmarked) [Compound 207, 2-(((2-(methylsulfinyl)ethyl)amino)methylene)-5-phenylcyclohexane-1,3-dione], the IC50 lay in the range of 15 to 100 µM. In the case of `CS(=O)(=O)CCNC=C1C(=O)CC(c2ccccc2)CC1=O` (centres unmarked) [Compound 208, 2-(((2-(methylsulfonyl)ethyl)amino)methylene)-5-phenylcyclohexane-1,3-dione], the IC50 fell in the range of 15 to 100 µM.

Turning to `CN(C)CCNC=C1C(=O)CC(c2ccccc2)C(F)C1=O` (centres unmarked) [Compound 209, 2-(((2-(dimethylamino)ethyl)amino)methylene)-4-fluoro-5-phenylcyclohexane-1,3-dione], the 50% inhibitory concentration (IC50) is < 3 µM. As to `O=C(O)CNC(=O)CNC=C1C(=O)CC(c2ccccc2)CC1=O` (centres unmarked) [Compound 210, ((2,6-dioxo-4-phenylcyclo-hexylidene)methyl) glycylglycine], the IC50 was in the range of 15 to 100 µM. In the case of `CC(C)C(=O)N1CCN(CCNC=C2C(=O)CC(c3ccccc3)CC2=O)CC1` (centres unmarked) [Compound 211, 2-(((2-(4-isobutyrylpiperazin-1-yl)ethyl)amino)methylene)-5-phenylcyclohexane-1,3-dione], the 50% inhibitory concentration (IC50) is < 3 µM.

For `CC(C)(C)C(=O)N1CCN(CCNC=C2C(=O)CC(c3ccccc3)CC2=O)CC1` (centres unmarked) [Compound 212, 5-phenyl-2-(((2-(4-pivaloylpiperazin-1-yl)ethyl)amino)methylene) cyclohexane-1,3-dione], the IC50 is < 3 µM. For the molecule `CC(C)CC(=O)N1CCN(CCNC=C2C(=O)CC(c3ccccc3)CC2=O)CC1` (centres unmarked) [Compound 213, 2-(((2-(4-(3-methylbutanoyl)piperazin-1-yl)ethyl)amino)methylene)-5-phenylcyclohexane-1,3-dione], the half-maximal inhibitory concentration (IC50) was < 3 µM. In the case of `CN(C)C(=O)N1CCN(CCNC=C2C(=O)CC(c3ccccc3)CC2=O)CC1` (centres unmarked) [Compound 214, 4-(2-(((2,6-dioxo-4-phenylcyclo-hexylidene)methyl)amino)ethyl)-N,N-dimethylpiperazine-1-carboxamide], the half-maximal inhibitory concentration (IC50) was < 3 µM. `CCC(=O)N1CCN(CCNC=C2C(=O)CC(c3ccccc3)CC2=O)CC1` (centres unmarked) [Compound 215, 5-phenyl-2-(((2-(4-propionylpiperazin-1-yl)ethyl)amino)methylene) cyclohexane-1,3-dione]: the 50% inhibitory concentration (IC50) is < 3 µM.

As for `O=C1CC(c2ccccc2)CC(=O)C1=CNCCN1CCN(C(=O)c2ccccc2)CC1` (centres unmarked) [Compound 216, 2-(((2-(4-benzoylpiperazin-1-yl)ethyl)amino)methylene)-5-phenylcyclohexane-1,3-dione], the IC50 is < 3 µM. For the molecule `O=C1CC(c2ccccc2)CC(=O)C1=CNCCN1CCN(C(=O)c2ccc([N+](=O)[O-])cc2)CC1` (centres unmarked) [Compound 217, 2-(((2-(4-(4-nitrobenzoyl)piperazin-1-yl)ethyl)amino)methylene)-5-phenylcyclohexane-1,3-dione], the concentration for half-maximal inhibition (IC50) lay within 3 to 15 µM. `CS(=O)(=O)N1CCN(CCNC=C2C(=O)CC(c3ccccc3)CC2=O)CC1` (centres unmarked) [Compound 218, 2-(((2-(4-(methylsulfonyl)piperazin-1-yl)ethyl)amino)methylene)-5-phenylcyclohexane-1,3-dione]: the half-inhibitory concentration (IC50) is < 3 µM. Regarding `O=C1CC(c2ccccc2)CC(=O)C1=CNCCN1CCN(C(=O)c2ccc(Cl)cc2)CC1` (centres unmarked) [Compound 219, 2-(((2-(4-(4-chlorobenzoyl)piperazin-1-yl)ethyl)amino)methylene)-5-phenylcyclohexane-1,3-dione], the IC50 was < 3 µM. The same measure for `O=C1CC(c2ccccc2)CC(=O)C1=CNCCN1CCN(C(=O)c2ccc(Br)cc2)CC1` (centres unmarked) [Compound 220, 2-(((2-(4-(4-bromobenzoyl)piperazin-1-yl)ethyl)amino)methylene)-5-phenylcyclohexane-1,3-dione]: 3 to 15 µM; for `O=C1CC(c2ccccc2)CC(=O)C1=CNCCN1CCN(C(=O)Cc2ccccc2)CC1` (centres unmarked) [Compound 221, 5-phenyl-2-(((2-(4-(2-phenylacetyl)piperazin-1-yl)ethyl)amino)methylene) cyclohexane-1,3-dione]: < 3 µM; for `O=C1CC(c2ccccc2)CC(=O)C1=CNCCN1CCN(C(=O)c2cccnc2)CC1` (centres unmarked) [Compound 222, 2-(((2-(4-nicotinoylpiperazin-1-yl)ethyl)amino)methylene)-5-phenylcyclohexane-1,3-dione]: < 3 µM.

Take `Cc1ccc(NC(=O)N2CCN(CCNC=C3C(=O)CC(c4ccc(C)cc4)CC3=O)CC2)cc1` (centres unmarked) [Compound 224, 4-(2-(((2,6-dioxo-4-(p-tolyl)cyclohexylidene)methyl)amino)ethyl)-N-(p-tolyl)piperazine-1-carboxamide]: the half-maximal inhibitory concentration (IC50) was < 3 µM. For the molecule `CC(=O)N1CCN(CCNC=C2C(=O)CC(c3ccc(C)cc3)CC2=O)CC1` (centres unmarked) [Compound 225, 2-(((2-(4-acetylpiperazin-1-yl)ethyl)amino)methylene)-5-(p-tolyl) cyclohexane-1,3-dione], the IC50 was < 3 µM. Consider `Cc1ccc(C2CC(=O)C(=CNCCN3CCN(C(=O)N4CCOCC4)CC3)C(=O)C2)cc1` (centres unmarked) [Compound 226, 2-(((2-(4-(morpholine-4-carbonyl)piperazin-1-yl)ethyl)amino)methylene)-5-(p-tolyl) cyclohexane-1,3-dione], for which the IC50 is < 3 µM. Regarding `Cc1ccc(C2CC(=O)C(=CNCCN3CCN(S(=O)(=O)c4ccc(C)cc4)CC3)C(=O)C2)cc1` (centres unmarked) [Compound 227, 5-(p-tolyl)-2-(((2-(4-tosylpiperazin-1-yl)ethyl)amino)methylene) cyclohexane-1,3-dione], the concentration for half-maximal inhibition (IC50) lay in the range of 100 to 1000 µM. The value for `CCCNC(=O)N1CCN(CCNC=C2C(=O)CC(c3ccc(C)cc3)CC2=O)CC1` (centres unmarked) [Compound 228, 4-(2-(((2,6-dioxo-4-(p-tolyl)cyclohexylidene)methyl)amino)ethyl)-N-propylpiperazine-1-carboxamide] was < 3 µM. The same measure for `Cc1ccc(C2CC(=O)C(=CNCCN3CCN(CCO)CC3)C(=O)C2)cc1` (centres unmarked) [Compound 229, 2-(((2-(4-(2-hydroxyethyl)piperazin-1-yl)ethyl)amino)methylene)-5-(p-tolyl) cyclohexane-1,3-dione]: < 3 µM; for `Cc1ccc(C2CC(=O)C(=CNCCN3CCN(CCCO)CC3)C(=O)C2)cc1` (centres unmarked) [Compound 230, 2-(((2-(4-(3-hydroxypropyl)piperazin-1-yl)ethyl)amino)methylene)-5-(p-tolyl) cyclohexane-1,3-dione]: < 3 µM; for `Cc1ccc(C2CC(=O)C(=CNCCN3CCN(C(=S)Nc4ccccc4)CC3)C(=O)C2)cc1` (centres unmarked) [Compound 231, 4-(2-(((2,6-dioxo-4-(p-tolyl)cyclohexylidene)methyl)amino)ethyl)-N-phenylpiperazine-1-carbothioamide]: < 3 µM. As to `C=CC(=O)N1CCN(CCNC=C2C(=O)CC(c3ccc(C)cc3)CC2=O)CC1` (centres unmarked) [Compound 232, 2-(((2-(4-acryloylpiperazin-1-yl)ethyl)amino)methylene)-5-(p-tolyl) cyclohexane-1,3-dione], the IC50 was < 3 µM. Turning to `C=C(C)C(=O)N1CCN(CCNC=C2C(=O)CC(c3ccc(C)cc3)CC2=O)CC1` (centres unmarked) [Compound 233, 2-(((2-(4-methacryloyl-piperazin-1-yl)ethyl)amino)methylene)-5-(p-tolyl) cyclohexane-1,3-dione], the half-inhibitory concentration (IC50) is < 3 µM. The value for `O=C1CC(c2ccccc2)CC(=O)C1=CNCCN1CCNCC1` (centres unmarked) [Compound 236, 5-phenyl-2-(((2-(piperazin-1-yl)ethyl)amino)methylene) cyclohexane-1,3-dione] was 3 to 15 µM.

Regarding `Cc1ccc(C2CC(=O)C(=CNCCN3CCNCC3)C(=O)C2)cc1` (centres unmarked) [Compound 237, 2-(((2-(piperazin-1-yl)ethyl)amino)methylene)-5-(p-tolyl) cyclohexane-1,3-dione], the half-maximal inhibitory concentration (IC50) was 3 to 15 µM. In the case of `CCN1CCN(CCNC=C2C(=O)CC(c3ccc(C)cc3)CC2=O)CC1` (centres unmarked) [Compound 238, 2-(((2-(4-ethylpiperazin-1-yl)ethyl)amino)methylene)-5-(p-tolyl) cyclohexane-1,3-dione], the IC50 was < 3 µM.

For the origin of these results see patent US11319303B2 (WIGEN BIOMEDICINE TECHNOLOGY (SHANGHAI) CO., LTD., priority 2017, dated 2022).
